According to ChEMBL document CHEMBL4406853 (Eur J Med Chem, 2019):
Non-standard residues stand in square brackets, D forms with d. Residues, ends and D or L forms follow the SMILES beside them. ξ: configuration not given here. ξP = O=C(O)C1CCCN1

What was measured:
Mu-type opioid receptor [1] = target: T1, Mu-type opioid receptor (Homo sapiens, UniProt P35372); assay: Inhibition of mu opioid receptor (unknown origin) assessed as increase in beta arrestin recruitment relative to control; assay type: functional
T1 sequence (P35372 whole entry): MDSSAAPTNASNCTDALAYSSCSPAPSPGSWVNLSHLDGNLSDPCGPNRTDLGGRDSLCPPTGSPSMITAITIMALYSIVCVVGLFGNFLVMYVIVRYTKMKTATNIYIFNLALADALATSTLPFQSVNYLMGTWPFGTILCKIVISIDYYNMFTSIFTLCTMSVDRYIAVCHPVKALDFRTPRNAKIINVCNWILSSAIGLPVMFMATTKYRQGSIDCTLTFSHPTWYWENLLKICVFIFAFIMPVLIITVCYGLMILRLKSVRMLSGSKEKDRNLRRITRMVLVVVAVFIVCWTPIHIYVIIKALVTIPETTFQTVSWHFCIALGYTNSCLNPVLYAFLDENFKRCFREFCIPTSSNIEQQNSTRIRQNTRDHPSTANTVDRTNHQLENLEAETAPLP

Mu-type opioid receptor [2] = target: T1, Mu-type opioid receptor; assay: Inhibition of mu opioid receptor (unknown origin) expressed in human […] cells assessed as increase in beta arrestin recruitment; assay type: functional, cell-based
[3] = target: T2, Delta-type opioid receptor (Homo sapiens, UniProt P41143); assay: Inhibition of delta opioid receptor (unknown origin) expressed in human […] cells by [35S]-GTPgammaS binding assay relative to control; assay type: functional, cell-based
T2 sequence (P41143 whole entry): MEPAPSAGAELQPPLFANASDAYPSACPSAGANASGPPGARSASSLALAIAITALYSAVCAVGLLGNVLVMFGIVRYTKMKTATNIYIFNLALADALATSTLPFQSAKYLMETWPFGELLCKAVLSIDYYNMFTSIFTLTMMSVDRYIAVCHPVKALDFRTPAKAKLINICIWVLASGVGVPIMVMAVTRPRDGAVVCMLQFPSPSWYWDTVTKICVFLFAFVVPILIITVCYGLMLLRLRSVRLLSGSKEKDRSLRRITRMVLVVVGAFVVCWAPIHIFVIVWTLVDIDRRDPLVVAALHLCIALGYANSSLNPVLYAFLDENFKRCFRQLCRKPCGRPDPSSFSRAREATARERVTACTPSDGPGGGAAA

Mu-type opioid receptor [4] = target: T1, Mu-type opioid receptor; assay: Inhibition of mu opioid receptor (unknown origin) expressed in human […] cells by [35S]-GTPgammaS binding assay; assay type: functional, cell-based
[5] = target: T2, Delta-type opioid receptor; assay: Inhibition of delta opioid receptor (unknown origin) expressed in human […] cells by [35S]-GTPgammaS binding assay; assay type: functional, cell-based
Mu-type opioid receptor [6] = target: T1, Mu-type opioid receptor; assay: Inhibition of mu opioid receptor (unknown origin) expressed in human […] cells by [35S]-GTPgammaS binding assay relative to control; assay type: functional, cell-based
[7] = target: T2, Delta-type opioid receptor; assay: Inhibition of delta opioid receptor (unknown origin) expressed in human […] cells assessed as increase in beta arrestin recruitment; assay type: functional, cell-based
[8] = target: T2, Delta-type opioid receptor; assay: Inhibition of delta opioid receptor (unknown origin) assessed as increase in beta arrestin recruitment relative to control; assay type: functional
Mu-type opioid receptor [9] = target: T1, Mu-type opioid receptor; assay: Inhibition of mu opioid receptor (unknown origin) expressed in HEK293 cells assessed as inhibition of forskolin-stimulated intracellular cAMP accumulation preincubated for 30 mins followed by forskolin-stimulation and measured after 60 mins; assay type: functional, cell-based
Mu-type opioid receptor [10] = target: T1, Mu-type opioid receptor; assay: Inhibition of mu opioid receptor (unknown origin) expressed in HEK293 cells assessed as inhibition of forskolin-stimulated […] preincubated for 30 mins followed by forskolin-stimulation and measured after 60 mins; assay type: cell-based
Mu-type opioid receptor [11] = target: T1, Mu-type opioid receptor; assay: Inhibition of mu-opioid receptor (unknown origin) by [35S]-GTPgammaS binding assay; assay type: functional
[12] = target: T3, Kappa-type opioid receptor (Homo sapiens, UniProt P41145); assay: Inhibition of kappa-opioid receptor (unknown origin) by [35S]-GTPgammaS binding assay; assay type: functional
T3 sequence (P41145 whole entry): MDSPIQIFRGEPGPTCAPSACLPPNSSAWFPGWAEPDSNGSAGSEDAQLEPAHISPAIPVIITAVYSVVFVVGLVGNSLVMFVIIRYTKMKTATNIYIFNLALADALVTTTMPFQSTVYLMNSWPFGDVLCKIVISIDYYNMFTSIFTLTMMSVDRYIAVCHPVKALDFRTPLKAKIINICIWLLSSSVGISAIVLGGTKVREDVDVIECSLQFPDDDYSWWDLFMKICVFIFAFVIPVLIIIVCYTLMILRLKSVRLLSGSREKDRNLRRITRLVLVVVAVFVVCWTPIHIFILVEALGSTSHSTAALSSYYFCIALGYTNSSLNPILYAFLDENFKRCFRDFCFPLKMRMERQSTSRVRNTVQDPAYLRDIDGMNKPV

Mus musculus [13] = assay: Antinociceptive activity in icv dosed mouse; assay type: functional
[14] = target: Kappa-type opioid receptor (Cavia porcellus) (UniProt P41144); assay: Agonist activity at kappa opioid receptor in guinea pig brain membranes by [35S]-GTPgammaS binding assay relative to control; assay type: functional, cell membranes
Sequence of Kappa-type opioid receptor (Cavia porcellus) (P41144 whole entry): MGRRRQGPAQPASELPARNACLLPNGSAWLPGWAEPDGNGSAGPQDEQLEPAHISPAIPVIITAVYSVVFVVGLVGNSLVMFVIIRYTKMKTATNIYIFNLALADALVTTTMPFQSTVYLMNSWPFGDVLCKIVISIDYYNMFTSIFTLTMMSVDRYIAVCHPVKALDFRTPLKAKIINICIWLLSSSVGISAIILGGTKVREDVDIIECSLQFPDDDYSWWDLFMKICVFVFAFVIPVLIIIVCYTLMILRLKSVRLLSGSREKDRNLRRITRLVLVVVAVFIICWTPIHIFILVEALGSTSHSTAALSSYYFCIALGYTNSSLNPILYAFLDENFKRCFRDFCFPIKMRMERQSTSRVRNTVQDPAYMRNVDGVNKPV

Mu-type opioid receptor [15] = target: T4, Mu-type opioid receptor (Cavia porcellus, UniProt P97266); assay: Inhibition of mu opioid receptor in guinea pig brain membranes; assay type: cell membranes
T4 sequence (P97266 whole entry): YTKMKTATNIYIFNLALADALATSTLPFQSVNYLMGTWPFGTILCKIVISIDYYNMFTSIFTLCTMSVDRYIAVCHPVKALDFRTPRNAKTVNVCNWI

[16] = target: Mu-type opioid receptor (Cavia porcellus) (UniProt P97266); assay: Agonist activity at mu opioid receptor in guinea pig brain membranes by [35S]-GTPgammaS binding assay relative to control; assay type: functional, cell membranes
Sequence of Mu-type opioid receptor (Cavia porcellus) (P97266 whole entry): as above

Cavia porcellus = organism: Cavia porcellus; assay: Agonist activity at delta opioid receptor in guinea pig brain membranes by [35S]-GTPgammaS binding assay relative to control; assay type: cell membranes
Mu-type opioid receptor [17] = target: T4, Mu-type opioid receptor; assay: Agonist activity at mu opioid receptor in guinea pig brain membranes by [35S]-GTPgammaS binding assay; assay type: functional, cell membranes
[18] = target: T5, Kappa-type opioid receptor (Cavia porcellus, UniProt P41144); assay: Inhibition of kappa opioid receptor in guinea pig brain membranes; assay type: cell membranes
T5 sequence (P41144 whole entry): as the sequence (P41144 whole entry) above

[19] = Agonist activity at delta opioid receptor in guinea pig brain membranes by [35S]-GTPgammaS binding assay; assay type: cell membranes, Cavia porcellus
[20] = target: T5, Kappa-type opioid receptor; assay: Agonist activity at kappa opioid receptor in guinea pig brain membranes by [35S]-GTPgammaS binding assay; assay type: functional, cell membranes
[21] = Inhibition of delta opioid receptor in guinea pig brain membranes; assay type: cell membranes, Cavia porcellus
[22] = target: T3, Kappa-type opioid receptor; assay: Inhibition of kappa opioid receptor (unknown origin) relative to control
[23] = target: T3, Kappa-type opioid receptor; assay: Inhibition of kappa opioid receptor (unknown origin)
[24] = target: T3, Kappa-type opioid receptor; assay: Binding affinity to kappa opioid receptor (unknown origin)
Mu-type opioid receptor [25] = target: T1, Mu-type opioid receptor; assay: Displacement of [3H]DAMGO from mu opioid receptor (unknown origin) expressed in HEK293 cells after 1 hr by liquid scintillation counting; assay type: cell-based
MAP kinase p38 = MAP kinase p38 (Homo sapiens, UniProt O15264+Q15759+Q16539+P53778); assay: Inhibition of p38 phosphorylation (unknown origin); assay type: protein assay
[26] = target: Mitogen-activated protein kinase 3 (Homo sapiens, UniProt P27361); assay: Inhibition of ERK1 phosphorylation (unknown origin)
Sequence of Mitogen-activated protein kinase 3 (P27361 whole entry): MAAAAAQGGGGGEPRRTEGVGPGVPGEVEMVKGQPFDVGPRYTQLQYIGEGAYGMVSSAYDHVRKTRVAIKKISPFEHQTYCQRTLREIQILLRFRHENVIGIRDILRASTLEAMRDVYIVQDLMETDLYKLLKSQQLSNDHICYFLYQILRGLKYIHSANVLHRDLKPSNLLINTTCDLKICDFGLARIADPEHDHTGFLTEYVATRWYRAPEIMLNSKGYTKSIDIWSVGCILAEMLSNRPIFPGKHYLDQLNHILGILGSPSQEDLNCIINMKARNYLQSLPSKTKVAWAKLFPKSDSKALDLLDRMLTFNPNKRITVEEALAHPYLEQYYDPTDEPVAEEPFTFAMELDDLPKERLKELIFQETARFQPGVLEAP

[27] = target: Mitogen-activated protein kinase 1 (Homo sapiens, UniProt P28482); assay: Inhibition of ERK2 phosphorylation (unknown origin)
Sequence of Mitogen-activated protein kinase 1 (P28482 whole entry): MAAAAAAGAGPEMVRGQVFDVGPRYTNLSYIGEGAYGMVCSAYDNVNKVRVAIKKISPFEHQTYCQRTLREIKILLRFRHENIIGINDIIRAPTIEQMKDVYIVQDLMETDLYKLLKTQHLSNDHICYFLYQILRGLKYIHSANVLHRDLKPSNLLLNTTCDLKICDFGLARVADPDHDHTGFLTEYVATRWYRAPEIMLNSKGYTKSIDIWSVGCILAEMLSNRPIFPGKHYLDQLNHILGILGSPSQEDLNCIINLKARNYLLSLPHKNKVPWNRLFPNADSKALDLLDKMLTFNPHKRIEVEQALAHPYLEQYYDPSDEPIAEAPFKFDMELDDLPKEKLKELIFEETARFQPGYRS

Mus musculus [28] = assay: Antinociceptive activity in iv dosed Kunming mouse; assay type: functional
Mus musculus [29] = assay: Antinociceptive activity in icv dosed Kunming mouse; assay type: functional; conditions: central
[30] = target: T3, Kappa-type opioid receptor; assay: Agonist activity at kappa opioid receptor (unknown origin) assessed as reduction in beta arrestin recruitment relative to control; assay type: functional
[31] = target: T3, Kappa-type opioid receptor; assay: Partial agonist activity at kappa opioid receptor (unknown origin) expressed in CHO cells by [35S]-GTPgammaS binding assay; assay type: functional, cell-based
[32] = target: T3, Kappa-type opioid receptor; assay: Agonist activity at kappa opioid receptor (unknown origin) assessed as reduction in beta arrestin recruitment; assay type: functional
[33] = target: T3, Kappa-type opioid receptor; assay: Inhibition of kappa opioid receptor (unknown origin) expressed in CHO cells by [35S]-GTPgammaS binding assay; assay type: functional, cell-based
Homo sapiens [34] = organism: Homo sapiens; assay: Selectivity ratio of Ki for mu opioid receptor (unknown origin) expressed in CHO cells to Ki for delta opioid receptor (unknown origin) expressed in CHO cells; assay type: cell-based
Mu-type opioid receptor [35] = target: T1, Mu-type opioid receptor; assay: Partial agonist activity at mu opioid receptor (unknown origin) expressed in CHO cells by [35S]-GTPgammaS binding assay; assay type: functional, cell-based
[36] = target: T3, Kappa-type opioid receptor; assay: Partial agonist activity at kappa opioid receptor (unknown origin) expressed in CHO cells by [35S]-GTPgammaS binding assay relative to control; assay type: functional, cell-based
[37] = target: T2, Delta-type opioid receptor; assay: Inhibition of delta opioid receptor (unknown origin) by radioligand binding assay
Homo sapiens [38] = organism: Homo sapiens; assay: Selectivity ratio of IC50 for mu opioid receptor (unknown origin) to IC50 for delta opioid receptor (unknown origin) by MVD assay
[39] = target: T2, Delta-type opioid receptor; assay: Inhibition of delta opioid receptor (unknown origin) by MVD assay
[40] = target: T2, Delta-type opioid receptor; assay: Inhibition of full length delta opioid receptor (unknown origin) assessed as increase in beta arrestin 1 recruitment
[41] = target: T2, Delta-type opioid receptor; assay: Inhibition of full length delta opioid receptor (unknown origin) assessed as inhibition of forskolin-stimulated intracellular cAMP accumulation; assay type: functional, cell-based
Homo sapiens [42] = organism: Homo sapiens; assay: Selectivity ratio of IC50 for mu opioid receptor (unknown origin) to IC50 for delta opioid receptor (unknown origin) by radioligand binding assay
Mu-type opioid receptor [43] = target: T1, Mu-type opioid receptor; assay: Inhibition of mu opioid receptor (unknown origin)
[44] = target: T2, Delta-type opioid receptor; assay: Inhibition of full length delta opioid receptor (unknown origin) assessed as increase in beta arrestin 2 recruitment

CCOC(=O)C1(CCc2ccccc2)CCN(Cc2ccc(NC(C)=O)cc2)CC1
Emax (Mu-type opioid receptor [1]): 1200%
EC50 (Mu-type opioid receptor [2]): 8.3 µM
Emax [3]: 168%
EC50 (Mu-type opioid receptor [4]): 0.054 µM
EC50 [5]: 0.054 µM
Emax (Mu-type opioid receptor [6]): 168%
EC50 [7]: 8.3 µM
Emax [8]: 1200%

CN(C)[C@H](CNC(=O)NCCc1cccs1)Cc1cccc2ccccc12
EC50 (Mu-type opioid receptor [9]): 0.0524 to 0.0911 µM
EC50 (Mu-type opioid receptor [10]): 0.0524 to 0.0911 µM

CCC1(C)CC(CCNCc2ccccc2O)(c2ccccc2OC)CCO1 (configuration not stated)
EC50 (Mu-type opioid receptor [11]): 1.1 µM
EC50 [12]: 3.4 µM

Oc1cccc(CCN(CCc2ccccc2)CC2CCC2)c1
ED50 (Mus musculus [13]): 3.74 nmol

CC[C@@H]1CN2CCc3c([nH]c4cccc(OC)c34)[C@@H]2C[C@@H]1/C(=C\OC)C(=O)OC
Emax [14]: 65%
Ki (Mu-type opioid receptor [15]): 0.013 µM
Emax [16]: 65%
Emax (Cavia porcellus): 65%
EC50 (Mu-type opioid receptor [17]): 0.23 µM
Ki [18]: 0.123 µM
EC50 [19]: 0.23 µM
EC50 [20]: 0.23 µM
Ki [21]: 0.155 µM

COC(=O)[C@@H]1C[C@H](OC(=O)Cl)C(=O)[C@H]2[C@@]1(C)CC[C@H]1C(=O)O[C@H](c3ccoc3)C[C@]21C
Emax [22]: 85%
EC50 [23]: 0.00019 µM
Kd [24]: 0.0021 µM

C=C(C(N)=O)C(NC(=O)[C@H](Cc1c[nH]c2ccccc12)NC(=O)[C@@H](C)N(C)C(=O)[C@@H](N)Cc1ccc(O)cc1)c1ccco1 (some centres not stated)
EC50 (Mu-type opioid receptor [25]): 1.45 to 39 nM

C[C@@H](Cc1ccsc1)NC(=O)NC[C@H](Cc1cccc2ccccc12)N(C)C
EC50 (Mu-type opioid receptor [9]): 0.456 µM
EC50 (Mu-type opioid receptor [10]): 0.456 µM

CN(C(=O)/C=C/c1ccoc1)[C@@H]1CC[C@@]2(O)[C@H]3Cc4ccc(O)c5c4[C@@]2(CCN3CC2CC2)[C@H]1O5 [NALFURAFINE]
EC50 (MAP kinase p38): 0.0052 µM
EC50 [26]: 0.00055 µM
EC50 [27]: 0.00055 µM

C=C(C(N)=O)C(NC(=O)[C@H](Cc1c[nH]c2ccccc12)NC(=O)[C@@H](C)N(C)C(=O)C(N)Cc1c(C)cc(O)cc1C)c1ccco1 (some centres not stated)
ED50 (Mus musculus [28]): 0.000382 µmol/kg
ED50 (Mus musculus [29]): 0.0152 µmol/kg
EC50 (Mu-type opioid receptor [25]): 0.00177 to 0.00515 nM
Ki (Mu-type opioid receptor [25]): 0.0109 to 0.0511 nM

CCC1CC2CC3c4[nH]c5ccc(O)cc5c4CCN(C2)C13 (configuration not stated)
Emax [30]: 13%
EC50 [31]: 8.75 µM
EC50 [32]: 0.11 µM
Ki [33]: 0.72 µM
Ratio Ki (Homo sapiens [34]): 2
EC50 (Mu-type opioid receptor [35]): 16 µM
Emax [36]: 72%

CN(C)[C@H](CNC(=O)NCCc1ccsc1)Cc1ccc2ccccc2c1
EC50 (Mu-type opioid receptor [9]): 0.0524 to 0.243 µM
EC50 (Mu-type opioid receptor [10]): 0.0524 to 0.243 µM

CC(C)C[C@H](NC(=O)C1CCCN1C(=O)[C@@H](N)Cc1ccc(O)cc1)C(=O)N[C@@H](CC(=O)O)C(=O)N[C@@H](CC(C)C)C(=O)N[C@@H](Cc1ccccc1)C(=O)O (some centres not stated) (H-Y[ξP]LDLF-OH)
IC50 [37]: 0.9 µM
Ratio IC50 (Homo sapiens [38]): 500
IC50 [39]: 24.4 µM
EC50 [40]: 7.94 µM
IC50 [41]: 1.58 µM
Ratio IC50 (Homo sapiens [42]): 500
IC50 (Mu-type opioid receptor [43]): > 2000 µM
EC50 [44]: 7.94 µM
